The numbers were not newly measured in article PMC12440824, “Chimeric deubiquitinase engineering reveals structural basis for specific inhibition of the mitophagy regulator USP30” (Nature Structural & Molecular Biology, 2025), which cites them from elsewhere.

Like-named read-outs stand apart in the source and are kept apart here.

Data set [1] has as its system USP30. The arrangement: method as in Extended Data Fig. 1. To be noted: ref Extended Data Fig. 1; read-out: Tetra-Ub cleavage IC50; cited from earlier work.
Data set [2] relates to USP30. To be noted: literature values in Fig. 1b / Extended Data Fig. 1; ref Extended Data Fig. 1; read-out: Cellular ABPP IC50; cited from earlier work.
Data set [3] concerns recombinant USP30. The conditions noted are these: literature values in Extended Data Fig. 1; ref Extended Data Fig. 1; read-out: Ub-Rho IC50; cited from earlier work.

With `C=C1C(=O)C23CCC1CC2C12CCCC(C)(COC1=O)C2CC3O` (stereo not shown) [S3], the IC50 in data set [1] is 10000 to 50000 nM. In the case of `CC(C)(C)NS(=O)(=O)c1cccc2c(NC(=O)[C@H](Cc3ccccc3)NC(=O)C3CCCCC3)cccc12` [MF-094], the IC50 is under 200 nM in data set [2] and 120 nM in data set [3]. Turning to `N#CN1CC[C@@H](NC(=O)c2cc(-c3ccccc3Oc3ccccc3)n[nH]2)C1` [FT385], the values for the IC50 in data set [2] and in data set [3] were about 60 nM and 2 nM, respectively. As for `COc1cc(NC(=O)[C@H](Cc2ccccc2)NC(=O)c2ccc(F)cc2)ccc1S(=O)(=O)NC1CCOCC1` [I-150], in data set [3], the IC50 was under 50 nM. In the case of `N#Cc1cccc(-c2nnc(C(=O)NC3CC(CF)N(C#N)C3)o2)c1` (stereo not shown) [Example 3], the IC50 in data set [3] was 13 nM.

In general, IC50 refers to the concentration that inhibits the measured activity by half.
